These results are taken from PMC11272598, “RG7774 (Vicasinabin), an orally bioavailable cannabinoid receptor 2 (CB2R) agonist, decreases retinal vascular permeability, leukocyte adhesion, and ocular inflammation in animal models” (Frontiers in Pharmacology, 2024).

Where “and” joins values, the source holds several entries; their conditions need not be identical. Equal values may be shown once. A value given as a limit tells only on which side of the number the result lay.

Broadly, the microsomal CLint is a measure of how fast metabolising enzymes remove a compound, apart from limits set by blood flow. A higher microsomal CLint goes with rapid turnover. A word on the inhibition: it is the relative decrease from the control value, in per cent. In general, EC50 refers to the concentration needed to bring the measured effect to its halfway point.

Series [1] can be described thus: Microsomal clearance. The series is classed as in vitro ADME. The following applies: pH 7.4. Here is the method:
Commercially-available ultra-pooled microsome preparations from human (150 different donors) (BD UltraPool HLM 150, Beckton Dickinson, Japan) or mouse liver tissues (Beckton Dickinson) were incubated in 96-deep-well plates containing 0.1 M phosphate buffer (pH 7.4) at 37 °C on a TECAN liquid handling system equipped with Teleshake shakers and a warming device (Tecan Group Ltd., Switzerland). The NADPH regenerating system consisted of 30 mM glucose-6-phosphate disodium salt hydrate, 10 mM NADP, 30 mM MgCl2 × 6 H2O, and 5 mg/mL glucose-6-phosphate dehydrogenase (Roche Diagnostics, IN, USA) in 0.1 M potassium phosphate buffer (pH 7.4). The microsome mixture (0.5 mg/mL) was incubated with 1 μM RG7774 in 96-well plates at 37 °C. After 1, 3, 6, 9, 15, 25, 35, and 45 min, aliquots of the incubations (40 μL) were removed and reactions were quenched with 1:3 (v/v) acetonitrile containing internal standards. Samples were cooled, centrifuged, and analyzed by liquid chromatography-mass spectroscopy (LC-MS)/mass spectroscopy (MS). Log peak area ratios (test compound peak area/internal standard peak area) were plotted against incubation time with a linear fit. The calculated slope was used to determine the intrinsic clearance: CLint (μL/min/mg protein) = –slope (min–1) × 1000/protein concentration, mg/mL.

Series [2] is described as follows: Thermodynamic solubility (THESA/FaSSIF/FeSSIF). The series is classed as physicochemical. The source says:
S2.2 Thermodynamic solubility assay (THESA)

Series [3] deals with T1, Mouse FAAH (Mus musculus, UniProt O08914).
T1 construct: Mouse brain was homogenized in 50 mM Tris-HCl (pH 7.4); from tissue; host or cells: mouse brain, 1000 g supernatant
T1 sequence (O08914 whole entry): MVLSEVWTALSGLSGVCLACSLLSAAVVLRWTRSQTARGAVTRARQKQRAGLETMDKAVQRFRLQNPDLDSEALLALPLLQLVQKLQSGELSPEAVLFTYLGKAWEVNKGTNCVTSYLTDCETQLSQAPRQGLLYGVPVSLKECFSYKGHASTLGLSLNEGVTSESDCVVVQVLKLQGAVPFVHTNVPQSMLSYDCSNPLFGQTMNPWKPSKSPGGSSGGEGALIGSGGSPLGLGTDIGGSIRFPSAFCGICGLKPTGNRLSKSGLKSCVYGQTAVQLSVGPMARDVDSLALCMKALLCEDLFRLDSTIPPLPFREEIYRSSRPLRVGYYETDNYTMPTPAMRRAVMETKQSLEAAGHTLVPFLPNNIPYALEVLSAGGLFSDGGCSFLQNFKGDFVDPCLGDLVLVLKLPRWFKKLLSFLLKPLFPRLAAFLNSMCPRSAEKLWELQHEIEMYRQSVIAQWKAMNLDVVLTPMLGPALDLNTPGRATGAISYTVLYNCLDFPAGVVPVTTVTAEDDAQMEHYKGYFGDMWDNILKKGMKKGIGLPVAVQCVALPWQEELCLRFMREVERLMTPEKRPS
Briefly: Mouse FAAH assay (brain). The conditions noted are these: RG7774 10 µM; read-out: Mean ± SEM % inhibition of control, Mouse FAAH. The series is classed as biochemical. Here is the method: (§1) Mouse brain was homogenized in 50 mM Tris-HCl (pH 7.4) using a glass potter, centrifuged at 1000 g for 10 min, and the pellet was discarded. The supernatant (50 µg) was incubated with [^14C]-AEA (10 µM) (ARC, MO, USA) at 37°C for 15 min (Tris-HCl, pH 9.0) and reactions were stopped with a 2:1 (v/v) mixture of chloroform/methanol. [^14C]-ethanolamine release in the aqueous phase was measured as previously reported. Mouse supernatants (50 µg) were preincubated with RG7774 (10 µM) for 15 min and added directly to the incubation medium. Purified human FAAH (1.7 µg; Cayman Chemical Company, MI, USA) was incubated with [^14C]-AEA (10 µM) (ARC, MO, USA) at 37°C for 15 min (pH 9.0), as previously described. […] for 15 min with 8 different concentrations of RG7774 (0.1-500 µM) and added directly to the incubation medium (250 µL). Control experiments was carried out in the presence of the FAAH inhibitor, URB-597 (100 nM).

In series [4] the target is H1 (h) (Homo sapiens, UniProt P35367). As to the kind of experiment: CEREP radioligand binding. The following applies: radioligand [^3H]-pyrilamine. The text has this:
(§2) Supplement Table1.docx, table 3: Supplementary Table S3. RG7774 binding to non-CB1R/CB2R receptors, ion channels, transporters, and enzymes (CEREP, Celle l’Evescault, France; http://www.cerep.fr). | column: % inhibition of control SB (n = 2)

Series [5] has as its target δ(DOP) (h) (Homo sapiens, UniProt P41143). As to the kind of experiment: CEREP radioligand binding. The following applies: radioligand [^3H]-DADLE.
Text: as §2

Series [6] deals with BB (non-selective). Briefly: CEREP radioligand binding. The following applies: radioligand [^125I]-[Tyr^4]bombesin.
Text: as §2

Series [7] has as its target T2, endogenous CB2R (Homo sapiens, UniProt P34972).
T2 construct: endogenous CB2R in human Jurkat cells; endogenous in cells; host or cells: Jurkat cells
Briefly: Forskolin-stimulated cAMP in Jurkat cells. The class given is cell-based. The following applies: data not shown.

The target in series [8] is T3, recombinant mouse CB2R (Mus musculus, UniProt P47936).
T3 construct: bgal (beta-galactosidase fragment of the PathHunter system); host or cells: CHO-K1
T3 sequence (P47936 whole entry, the tested form may be a part): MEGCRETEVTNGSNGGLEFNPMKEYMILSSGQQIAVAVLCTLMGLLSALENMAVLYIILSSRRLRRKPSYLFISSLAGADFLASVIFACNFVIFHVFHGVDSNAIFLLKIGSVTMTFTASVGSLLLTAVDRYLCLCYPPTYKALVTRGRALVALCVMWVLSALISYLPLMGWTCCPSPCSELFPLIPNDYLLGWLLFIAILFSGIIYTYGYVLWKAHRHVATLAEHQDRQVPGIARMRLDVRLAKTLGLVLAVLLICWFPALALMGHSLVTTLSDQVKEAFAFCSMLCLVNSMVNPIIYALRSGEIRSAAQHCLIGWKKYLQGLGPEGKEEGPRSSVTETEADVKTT
As to the kind of experiment: Forskolin-stimulated cAMP assay in CHO cells. The series is classed as cell-based. Here is the method: (§3) The inhibitory effects of RG7774 on forskolin-stimulated accumulation of cAMP were determined using the cAMP-Nano-TRF detection kit (Roche Diagnostics, Penzberg, Germany), as previously described ([Porter et al., 2019]). CHOK1hCB1_bgal, CHOK1mCB2_bgal, and CHOK1hCB2_bgal cells (DiscoveRx, Fremont, CA, United States) were seeded 17–24 h prior to the experiment at a density of 3 × 10^4 cells per well in a black 96-well plate with a flat, clear bottom (Corning, Wiesbaden, Germany) prior to incubating in 5% CO2 at 37°C in a humidified incubator. The growth medium was exchanged with Krebs Ringer bicarbonate buffer containing 1 mM IBMX and 0.1% fatty acid-free BSA and incubated at 30°C for 1 h. RG7774 or positive control (CP55940) (1 µM) was added to a 0.1 mL final assay volume and the mixture was incubated at 30°C for 30 min. The assay was stopped by adding 50 μL 3x lysis reagent and shaking for 2 h at RT. The time-resolved energy transfer was measured using an LF502 Nanoscan FLT (IOM, Berlin, Germany) equipped with a laser excitation source. cAMP content was determined from a standard curve spanning 10–0.13 nM cAMP. Efficacies were expressed as a percentage relative to the positive control.
On the technique in general: Cyclic AMP is a second messenger, typically raised through Gs and lowered through Gi signalling.

The target of series [9] is T4, human CB2R (Homo sapiens, UniProt P34972).
T4 construct: bgal (beta-galactosidase fragment of the PathHunter system); host or cells: CHO-K1
T4 sequence (P34972 whole entry, the tested form may be a part): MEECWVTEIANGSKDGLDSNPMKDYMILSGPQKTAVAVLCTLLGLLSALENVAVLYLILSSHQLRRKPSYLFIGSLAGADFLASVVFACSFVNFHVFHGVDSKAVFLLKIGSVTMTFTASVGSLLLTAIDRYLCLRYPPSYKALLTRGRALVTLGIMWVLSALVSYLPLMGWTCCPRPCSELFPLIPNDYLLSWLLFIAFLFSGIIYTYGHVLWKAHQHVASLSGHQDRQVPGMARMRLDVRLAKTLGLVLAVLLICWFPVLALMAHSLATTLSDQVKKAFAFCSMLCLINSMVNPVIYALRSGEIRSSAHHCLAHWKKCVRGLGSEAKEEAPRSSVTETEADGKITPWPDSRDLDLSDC
As to the kind of experiment: Forskolin-stimulated cAMP assay in CHO cells. The series is classed as cell-based. As to the method: as §3

The subject of series [10] is sigma (non-selective) (h). Briefly: CEREP radioligand binding. Set-up: species or system human. The conditions noted are these: radioligand [^3H]-DTG.
Text: as §2

Series [11] is described as follows: Aqueous stability assay (ASTA). The class given is physicochemical. The conditions noted are these: 37 °C, 2 h. Here is the method: Aqueous solutions of RG7774 were prepared at 5 different pHs (pH 1-10) from DMSO stock solutions, added to incubation plates and shaken for 10 min at 37 °C. Solutions were transferred to a filter plate (Millipore MSGVN2250, pore size 0.22 μm) and filtered into V-bottom plates (ABGene, AB-0800) prior to heat-sealing. The procedure was repeated, increasing the 37 °C incubation time by 2 h. Samples were analyzed by HPLC at 0 and 2 h. A compound was classified as unstable if < 90% of the initial concentration was detected after 2 h.

For series [12], the target named is T5, Human FAAH (Homo sapiens, UniProt O00519).
T5 construct: purchased Cayman Chemical Company
T5 sequence (O00519 whole entry): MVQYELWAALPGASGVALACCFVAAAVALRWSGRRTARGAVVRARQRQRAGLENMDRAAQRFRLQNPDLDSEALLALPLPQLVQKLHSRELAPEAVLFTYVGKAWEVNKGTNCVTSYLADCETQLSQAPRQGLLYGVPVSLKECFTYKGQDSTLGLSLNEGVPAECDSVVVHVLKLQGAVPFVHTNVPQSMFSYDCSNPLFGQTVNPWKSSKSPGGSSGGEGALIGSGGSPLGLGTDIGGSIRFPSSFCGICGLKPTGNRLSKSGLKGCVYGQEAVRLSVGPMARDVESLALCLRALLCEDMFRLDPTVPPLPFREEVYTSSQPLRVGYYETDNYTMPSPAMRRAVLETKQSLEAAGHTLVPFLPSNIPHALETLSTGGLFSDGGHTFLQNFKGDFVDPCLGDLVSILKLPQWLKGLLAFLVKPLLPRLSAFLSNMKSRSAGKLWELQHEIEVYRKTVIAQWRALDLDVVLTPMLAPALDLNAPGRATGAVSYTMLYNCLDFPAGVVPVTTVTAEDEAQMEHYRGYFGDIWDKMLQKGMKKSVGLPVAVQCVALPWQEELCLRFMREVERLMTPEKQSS
As to the kind of experiment: Human FAAH assay. The conditions noted are these: RG7774 10 µM; read-out: Mean ± SEM % inhibition of control, Human FAAH. The series is classed as biochemical. Here is the method: as §1

Sequence of δ(DOP) (h) (P41143 whole entry): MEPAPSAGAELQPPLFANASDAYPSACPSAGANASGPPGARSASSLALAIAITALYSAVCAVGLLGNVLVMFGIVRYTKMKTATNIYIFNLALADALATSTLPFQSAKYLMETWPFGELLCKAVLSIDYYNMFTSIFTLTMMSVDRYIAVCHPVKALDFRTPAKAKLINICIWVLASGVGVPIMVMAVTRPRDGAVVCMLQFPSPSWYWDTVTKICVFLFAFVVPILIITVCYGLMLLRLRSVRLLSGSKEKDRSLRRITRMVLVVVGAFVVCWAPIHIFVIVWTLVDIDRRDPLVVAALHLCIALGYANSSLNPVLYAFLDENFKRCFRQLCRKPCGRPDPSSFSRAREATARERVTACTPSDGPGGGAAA
Sequence of H1 (h) (P35367 whole entry): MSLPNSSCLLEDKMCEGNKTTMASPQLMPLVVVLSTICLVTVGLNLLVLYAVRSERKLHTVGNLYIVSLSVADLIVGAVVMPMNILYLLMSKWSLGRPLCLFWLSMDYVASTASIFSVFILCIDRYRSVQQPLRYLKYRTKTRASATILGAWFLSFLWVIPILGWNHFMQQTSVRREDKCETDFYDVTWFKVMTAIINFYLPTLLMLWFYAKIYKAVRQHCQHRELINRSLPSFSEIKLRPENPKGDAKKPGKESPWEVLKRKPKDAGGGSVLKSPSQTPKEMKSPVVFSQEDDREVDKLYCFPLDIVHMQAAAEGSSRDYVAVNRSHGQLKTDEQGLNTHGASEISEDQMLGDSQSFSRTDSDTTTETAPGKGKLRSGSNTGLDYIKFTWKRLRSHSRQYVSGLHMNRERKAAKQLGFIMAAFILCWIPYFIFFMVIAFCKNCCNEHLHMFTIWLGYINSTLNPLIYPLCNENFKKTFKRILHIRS
T2 sequence (P34972 whole entry): as the sequence (P34972 whole entry, the tested form may be a part) above

In the case of `Cn1nnnc1Cn1nnc2c(N3CC[C@H](O)C3)nc(C(C)(C)C)nc21` [RG7774, (S)-1-(5-tert-butyl-3-[(1-methyl-1H-tetrazol-5-yl)methyl]-3H-[1,2,3]triazolo[4,5-d]pyrimidin-7-yl)pyrrolidin-3-ol], the microsomal CLint at 1 µM was 21.7 µL/min/mg in [1] (human); 15 µL/min/mg in series [1] (mouse, mouse liver microsomes); 25 µL/min/mg in [1] (rat, rat microsomes). In [2] (fasted simulated gastrointestinal fluid), this compound showed a FaSSIF of 1177 µg/mL. The FeSSIF in series [2] (fed simulated gastrointestinal fluid) is recorded as 2872 µg/mL. The compound also had a THESA in series [2] (thermodynamic solubility) of 901 µg/mL. For the same compound, the values for the inhibition at 10 µM in series [3] and in series [12] were 6 ± 8.7% and -5.2%, respectively. Besides, the “% inhibition of control SB (n = 2)” value in [4] is listed as “–8.8%”; in [5], 4.7%; in series [6], “–9.5%”; in series [10] it was “–8.2%”. The “inhibition of forskolin-stimulated intracellular cAMP levels in Jurkat cells” value in series [7] is “did not inhibit”. For the same compound, the EC50 in series [8] was 2.6 ± 0.14 nM; in series [9] (EC50, inhibition of forskolin-induced cAMP, human CB2R, recombinant CHO cells) it was 2.8 nM and 2.81 nM. The “efficacy compared to maximum efficacy of CP55940, mouse CB2R” value in [8] (cAMP, CHO cells) was “full agonist”. Also, the “functional affinity for human CB2R over CB1R” value in series [9] (cAMP assays) is reported as > 3,600 fold. Moreover, the “efficacy compared to maximum efficacy of CP55940, human CB2R” value in series [9] (cAMP, CHO cells) was “full agonist”. In addition, the “Chemical stability in aqueous media at pH 1–10” value in [11] was “stable”.
